The results in this text go back to ChEMBL document CHEMBL4229487, “Cyclic analogue of S-benzylisothiourea that suppresses kynurenine production without inhibiting indoleamine 2,3-dioxygenase activity” (Bioorg Med Chem Lett, 2018).

For data set [1], the system named is A-431. The data set can be described thus: Inhibition of kynurenine production in IFNgamma-treated human A431 cells at 1 uM after 24 hrs in presence of tryptophan relative to control. Type of data set: functional. As to conditions: A-431, 24 h.
Data set [2] has as its system A-431. The data set can be described thus: Cytotoxicity against human A431 cells. Type of data set: cell-based.
Data set [3] addresses Indoleamine 2,3-dioxygenase 1 (Homo sapiens) (UniProt P14902). The data set can be described thus: Inhibition of recombinant human IDO at 10 uM using L-tryptophan as substrate after 60 mins relative to control.
Data set [4] deals with A-431. The data set can be described thus: Inhibition of IFNgamma-induced IDO expression in human A431 cells after 24 hrs by Western blot method. The class given is functional, cell-based.
Data set [5] concerns A-431. Briefly: Inhibition of kynurenine production in IFNgamma-treated human A431 cells after 24 hrs in presence of tryptophan. The class given is functional, cell-based. As to conditions: A-431, 24 h.
The test system of data set [6] is A-431. Briefly: Cytotoxicity against human A431 cells at 100 uM. Type of data set: cell-based. The following applies: a-431, 100 µM.
The test system of data set [7] is A-431. Briefly: Inhibition of IFNgamma-induced STAT1 expression in human A431 cells after 24 hrs by Western blot method. The class given is functional, cell-based.
Data set [8] relates to A-431. The data set can be described thus: Inhibition of kynurenine production in IFNgamma-treated human A431 cells at 10 uM after 24 hrs in presence of tryptophan relative to control. The following applies: A-431, 24 h. The class given is functional.

Chain of Indoleamine 2,3-dioxygenase 1 (Homo sapiens) (P14902 whole entry, looked up): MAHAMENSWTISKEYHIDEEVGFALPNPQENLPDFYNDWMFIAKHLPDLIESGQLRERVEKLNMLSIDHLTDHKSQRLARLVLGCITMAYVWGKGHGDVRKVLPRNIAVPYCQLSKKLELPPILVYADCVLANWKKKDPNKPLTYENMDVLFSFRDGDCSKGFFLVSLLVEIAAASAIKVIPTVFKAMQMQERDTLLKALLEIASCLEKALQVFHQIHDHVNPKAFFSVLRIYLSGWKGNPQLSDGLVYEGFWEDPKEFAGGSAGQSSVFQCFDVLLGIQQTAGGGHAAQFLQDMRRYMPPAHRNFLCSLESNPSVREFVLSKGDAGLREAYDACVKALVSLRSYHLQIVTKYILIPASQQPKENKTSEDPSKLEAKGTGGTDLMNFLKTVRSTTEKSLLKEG

Take `Clc1ccc2[nH]c(SCc3ccccc3CCc3ccccc3)nc2c1`: in data set [1], the inhibition at 1 µM worked out at 48%. In addition, the Activity entry in data set [2] was “Non-Toxic”. Besides, the inhibition in data set [3] was 47%.
Turning to `c1ccc(CCc2ccccc2CSC2=NCCN2)cc1`, in data set [1], the inhibition at 1 µM was found to be 7%. Also, the inhibition in data set [3] stood at 17%.
Taken in the same sequence, the figures for `c1ccc(CCc2ccccc2CSc2nccs2)cc1` were 7% and 31%.
On the same counts, the results for `O=S(=O)(Cc1ccccc1)c1ccccc1CSc1nc2cc(Cl)ccc2[nH]1` are 1% and 24%.
On to `[O-][S+](Cc1ccccc1)c1ccccc1CSc1nc2cc(Cl)ccc2[nH]1` (stereo not drawn), for which the inhibition at 1 µM in data set [1] was 30%. Besides, in data set [3], the inhibition worked out at 11%.
With `c1ccc(CCc2ccccc2CSc2ncc[nH]2)cc1`, the inhibition at 1 µM in data set [1] stood at 1%. Further, the inhibition in data set [3] was found to be 19%.
With `c1ccc(CCc2ccccc2CSc2nc3ccccc3[nH]2)cc1`, the inhibition at 1 µM in data set [1] stood at 43%. Further, the Activity result in data set [2] is on record as “Non-Toxic”. Also, in data set [3], the inhibition came to 43%.
For the molecule `Clc1ccc2[nH]c(SCc3ccccc3/C=C/c3ccccc3)nc2c1`, in data set [1], the inhibition at 1 µM was 15%. In addition, in data set [3], the inhibition is -6%.
For the molecule `Clc1ccc2[nH]c(SCc3ccccc3SCc3ccccc3)nc2c1`, the inhibition result is “Dose-dependent effect” in data set [4], “Dose-dependent effect” in data set [7] and 19% in data set [3]. The IC50 in data set [5] turned out to be 450 nM. Besides, in data set [6], the Activity entry was “Non-Toxic”.
For the molecule `Clc1ccc2[nH]c(SCc3ccccc3/C=C\c3ccccc3)nc2c1`, the IC50 in data set [5] amounted to 340 nM. Further, in data set [6], the Activity entry was “Non-Toxic”. Besides, the inhibition in data set [3] came to 49%.
With `Clc1ccc2oc(SCc3ccccc3CCc3ccccc3)nc2c1`, the inhibition at 1 µM in data set [1] was -18%. Further, the inhibition in data set [3] turned out to be 21%.
On to `Clc1ccc2sc(SCc3ccccc3CCc3ccccc3)nc2c1`, for which the inhibition at 1 µM in data set [1] was -8%. For the same molecule, the inhibition in data set [3] came out at 9%.
As to `N=C(N)SCc1ccccc1`, the inhibition at 10 µM in data set [8] was 44%.
Take `Clc1ccc2[nH]c(SCc3ccccc3Oc3ccccc3)nc2c1`: the inhibition at 1 µM in data set [1] was found to be 39%. Moreover, in data set [3], the inhibition was 30%.
As to `Clc1ccc2[nH]c(SCc3ccccc3C#Cc3ccccc3)nc2c1`, the inhibition at 1 µM in data set [1] came out at 6%. Further, the inhibition in data set [3] came to 52%.
On the same counts, the results for `Clc1ccc2[nH]c(SCc3ccccc3OCc3ccccc3)nc2c1` are 30% and 3%.
As for `Clc1ccc2[nH]c(SCc3ccccc3CCCc3ccccc3)nc2c1`, the inhibition at 1 µM in data set [1] came out at 44%. Besides, the inhibition in data set [3] is 19%.
As for `c1ccc(CCc2ccccc2CSC2=NCCS2)cc1`, the inhibition at 1 µM in data set [1] is 0%. In data set [3], the inhibition was determined as 0%.
`Clc1ccc2[nH]c(SCc3ccccc3Cc3ccccc3)nc2c1`: the inhibition at 1 µM in data set [1] is 13%. In data set [3], the inhibition was found to be 46%.
